One may read the Ki as the equilibrium dissociation constant of an inhibitor or competing ligand from its target.

One experiment has as its target EcIMPDH-S250A/L444Y (Escherichia coli, UniProt P0ADG7, L444Y/S250A). The experiment can be described thus: biochemical.
The target of a further experiment is EcIMPDH (Escherichia coli, UniProt P0ADG7). The experiment can be described thus: IMPDH inhibition, E. coli enzyme. The class given is biochemical.
Another experiment deals with EcIMPDH-S250A (Escherichia coli, UniProt P0ADG7, S250A). The experiment can be described thus: biochemical.
The target of the next experiment is LdIMPDH (Leishmania donovani, UniProt P21620). The experiment can be described thus: IMPDH inhibition, L. donovani enzyme. The class given is biochemical.
In the next experiment the target is T1, HpIMPDH (Helicobacter pylori, UniProt P56088).
T1 sequence (P56088 1-481): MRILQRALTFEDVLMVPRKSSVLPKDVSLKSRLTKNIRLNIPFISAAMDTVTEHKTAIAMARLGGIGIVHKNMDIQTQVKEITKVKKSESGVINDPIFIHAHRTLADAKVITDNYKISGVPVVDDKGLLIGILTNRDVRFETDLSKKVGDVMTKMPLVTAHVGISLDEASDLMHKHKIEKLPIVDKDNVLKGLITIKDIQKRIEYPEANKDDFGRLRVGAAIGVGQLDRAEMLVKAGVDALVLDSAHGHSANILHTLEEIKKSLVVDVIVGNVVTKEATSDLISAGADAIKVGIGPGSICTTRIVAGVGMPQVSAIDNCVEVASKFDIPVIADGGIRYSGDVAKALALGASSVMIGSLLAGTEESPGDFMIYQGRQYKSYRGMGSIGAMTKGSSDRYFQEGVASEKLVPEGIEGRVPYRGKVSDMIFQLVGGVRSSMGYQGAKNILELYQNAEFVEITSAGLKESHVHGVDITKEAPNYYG
The experiment can be described thus: IMPDH inhibition, H. pylori enzyme. The class given is biochemical.

Another experiment deals with T2, BbIMPDH (Borreliella burgdorferi, UniProt P49058).
T2 sequence (P49058 1-404): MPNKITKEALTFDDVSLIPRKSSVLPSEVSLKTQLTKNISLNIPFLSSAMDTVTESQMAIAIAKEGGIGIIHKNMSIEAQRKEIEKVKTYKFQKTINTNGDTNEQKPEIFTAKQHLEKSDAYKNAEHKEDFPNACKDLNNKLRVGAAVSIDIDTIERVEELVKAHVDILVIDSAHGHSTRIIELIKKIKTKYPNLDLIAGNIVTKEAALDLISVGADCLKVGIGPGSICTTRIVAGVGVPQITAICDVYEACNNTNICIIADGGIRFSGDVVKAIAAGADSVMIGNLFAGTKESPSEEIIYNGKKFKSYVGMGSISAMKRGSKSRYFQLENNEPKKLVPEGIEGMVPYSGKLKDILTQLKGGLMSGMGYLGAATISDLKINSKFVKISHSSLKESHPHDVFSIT
The experiment can be described thus: IMPDH inhibition, B. burgdorferi enzyme. The class given is biochemical.

The target in a further experiment is SpIMPDH (Streptococcus pyogenes, UniProt P0C0H6). Description: biochemical.
Another experiment concerns the target T3, CpIMPDH (Cryptosporidium parvum, UniProt Q8T6T2).
T3 sequence (Q8T6T2 1-400): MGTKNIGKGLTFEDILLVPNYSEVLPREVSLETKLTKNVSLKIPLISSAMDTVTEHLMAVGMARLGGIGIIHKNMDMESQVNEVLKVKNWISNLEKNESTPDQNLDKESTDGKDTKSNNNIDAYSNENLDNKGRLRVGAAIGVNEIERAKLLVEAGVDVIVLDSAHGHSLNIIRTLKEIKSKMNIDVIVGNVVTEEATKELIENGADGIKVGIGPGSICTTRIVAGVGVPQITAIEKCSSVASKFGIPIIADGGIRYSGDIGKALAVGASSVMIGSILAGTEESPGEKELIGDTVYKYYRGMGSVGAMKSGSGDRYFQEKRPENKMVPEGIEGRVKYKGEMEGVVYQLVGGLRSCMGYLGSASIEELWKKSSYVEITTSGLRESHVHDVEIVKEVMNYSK
The note with it: cited from earlier work.

In the next experiment the target is TfIMPDH (Tritrichomonas foetus, UniProt P50097). The note with it: cited from earlier work; for Ki: TfIMPDH, ref Riera, et al., 2008.

Read-outs that look alike come from different tables or passages of the source.

Chain of TfIMPDH (P50097 whole entry): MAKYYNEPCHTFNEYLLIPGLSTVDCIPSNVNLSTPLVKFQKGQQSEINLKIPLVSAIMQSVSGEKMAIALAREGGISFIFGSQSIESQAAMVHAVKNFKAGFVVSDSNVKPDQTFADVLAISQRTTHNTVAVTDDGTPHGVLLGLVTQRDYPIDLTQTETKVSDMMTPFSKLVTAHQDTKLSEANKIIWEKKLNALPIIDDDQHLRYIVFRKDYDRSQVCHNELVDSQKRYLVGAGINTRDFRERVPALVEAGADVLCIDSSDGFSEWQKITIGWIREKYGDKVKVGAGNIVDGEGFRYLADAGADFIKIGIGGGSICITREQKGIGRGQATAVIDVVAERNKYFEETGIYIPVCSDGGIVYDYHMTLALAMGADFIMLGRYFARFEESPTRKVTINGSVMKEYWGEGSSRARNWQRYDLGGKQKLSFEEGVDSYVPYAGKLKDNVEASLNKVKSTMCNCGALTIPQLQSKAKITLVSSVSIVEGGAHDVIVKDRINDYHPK
Chain of EcIMPDH-S250A (P0ADG7 whole entry S250A): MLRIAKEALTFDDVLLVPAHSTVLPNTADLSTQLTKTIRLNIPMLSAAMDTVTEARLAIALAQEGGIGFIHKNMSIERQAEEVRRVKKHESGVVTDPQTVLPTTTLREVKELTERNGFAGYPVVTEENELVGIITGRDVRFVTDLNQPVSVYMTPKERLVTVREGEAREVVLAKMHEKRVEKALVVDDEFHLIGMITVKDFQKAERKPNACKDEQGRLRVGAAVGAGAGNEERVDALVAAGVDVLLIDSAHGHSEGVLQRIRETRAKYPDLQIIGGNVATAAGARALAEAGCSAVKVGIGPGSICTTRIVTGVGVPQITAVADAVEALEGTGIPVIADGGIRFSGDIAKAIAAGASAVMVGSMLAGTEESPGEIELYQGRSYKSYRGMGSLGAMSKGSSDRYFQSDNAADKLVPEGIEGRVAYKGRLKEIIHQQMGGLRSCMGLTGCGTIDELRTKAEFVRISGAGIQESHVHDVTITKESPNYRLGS
Chain of LdIMPDH (P21620 whole entry): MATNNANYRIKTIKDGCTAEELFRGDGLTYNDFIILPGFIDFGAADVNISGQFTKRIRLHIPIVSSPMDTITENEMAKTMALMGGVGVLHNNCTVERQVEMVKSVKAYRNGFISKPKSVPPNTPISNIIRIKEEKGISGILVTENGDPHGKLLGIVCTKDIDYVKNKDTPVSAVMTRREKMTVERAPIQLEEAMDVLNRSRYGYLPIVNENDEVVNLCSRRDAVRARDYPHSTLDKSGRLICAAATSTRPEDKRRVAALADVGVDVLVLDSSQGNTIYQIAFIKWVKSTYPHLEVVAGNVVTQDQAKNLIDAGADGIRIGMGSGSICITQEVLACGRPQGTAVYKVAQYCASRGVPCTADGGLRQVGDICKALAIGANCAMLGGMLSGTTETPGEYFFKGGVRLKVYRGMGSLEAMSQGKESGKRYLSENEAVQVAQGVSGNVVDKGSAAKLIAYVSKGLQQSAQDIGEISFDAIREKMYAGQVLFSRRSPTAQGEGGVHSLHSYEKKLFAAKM
Chain of SpIMPDH (P0C0H6 whole entry): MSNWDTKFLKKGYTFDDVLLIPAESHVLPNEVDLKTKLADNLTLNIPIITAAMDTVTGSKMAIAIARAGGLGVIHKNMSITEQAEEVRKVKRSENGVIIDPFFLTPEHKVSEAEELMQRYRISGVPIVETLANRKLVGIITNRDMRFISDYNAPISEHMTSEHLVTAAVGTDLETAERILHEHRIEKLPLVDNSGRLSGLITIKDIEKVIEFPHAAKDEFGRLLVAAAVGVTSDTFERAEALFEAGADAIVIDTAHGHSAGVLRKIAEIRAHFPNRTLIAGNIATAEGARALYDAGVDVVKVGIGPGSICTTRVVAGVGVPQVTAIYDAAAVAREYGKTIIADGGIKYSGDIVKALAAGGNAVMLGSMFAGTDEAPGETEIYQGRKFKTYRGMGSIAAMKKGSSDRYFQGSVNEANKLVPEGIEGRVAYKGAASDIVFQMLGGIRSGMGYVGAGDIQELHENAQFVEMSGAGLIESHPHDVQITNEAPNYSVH
Chain of EcIMPDH (P0ADG7 whole entry): as the sequence (P0ADG7 whole entry S250A) above, with A250S counted along it
Chain of EcIMPDH-S250A/L444Y (P0ADG7 whole entry S250A/L444Y): as the sequence (P0ADG7 whole entry S250A) above, with L444Y counted along it

Take `Nc1ncnc2c1ncn2[C@@H]1O[C@H](COP(=O)(O)OP(=O)(O)O)[C@@H](O)[C@H]1O` [ADP]: the Ki at EcIMPDH-S250A/L444Y (read-out: Ki ADP, EcIMPDH-S250A/L444Y) was 4.1 ± 0.7 mM; on EcIMPDH (read-out: Ki ADP, EcIMPDH), 10 ± 2 mM; on EcIMPDH-S250A (read-out: Ki ADP, EcIMPDH-S250A), 0.1 ± 0.01 mM; at LdIMPDH (read-out: Ki ADP, LdIMPDH), 15 ± 2 mM; at HpIMPDH (read-out: Ki ADP, HpIMPDH), 6 ± 0.5 mM; on BbIMPDH (read-out: Ki ADP, BbIMPDH), 7.4 ± 0.6 mM. Besides, the Ki is 13 ± 2 mM at SpIMPDH (read-out: Ki ADP, SpIMPDH); 42 ± 6 mM at CpIMPDH (read-out: Ki ADP, ref Riera, et al., 2008); 31 ± 2 mM at TfIMPDH (read-out: Ki ADP).

Take `NC(=O)c1csc([C@@H]2O[C@H](CO)[C@@H](O)[C@H]2O)n1` [Tzf, tiazofurin]: the Ki was 1.1 ± 0.2 mM on EcIMPDH-S250A/L444Y; 5.3 ± 0.6 mM on EcIMPDH; 2.5 ± 0.3 mM at EcIMPDH-S250A; 8.3 ± 0.7 mM at LdIMPDH; 1.3 ± 0.1 mM on HpIMPDH; 1.1 ± 0.2 mM at BbIMPDH. Also, the Ki at SpIMPDH is 8 ± 1 mM; on CpIMPDH (read-out: Ki Tzf, ref Riera, et al., 2008), 1.5 ± 0.1 mM; at TfIMPDH (read-out: Ki Tzf), 69 ± 9 mM.

As to `COc1c(C)c2c(c(O)c1C/C=C(\C)CCC(=O)O)C(=O)OC2` [mycophenolic acid], at TfIMPDH (TfIMPDH vs human IMPDH2, ref Digits and Hedstrom, 2000), the “Fold more resistant than human IMPDH2 (TfIMPDH)” value is on record as 400 fold.

The record behind these values is PMC2991053 (Chemistry & biology, 2010).
